These results are taken from patent US7994209B2, “3-phenoxymethylpyrrolidine compounds” (Theravance, Inc., priority 2009, dated 2011).

One assay relates to SERT and NET. To be noted: cited from earlier work.
Assay [1] deals with T1, hSERT (Homo sapiens, UniProt P31645). Description: fluorescence-based serotonin reuptake inhibition assay (Tsuruda et al. 2010; data indicated by an asterisk). Type of assay: cell-based. Also noted: expressed in transfected cells; host or cells: HEK-293. The following applies: fluorescence-based assay (values with asterisk), read-out: SERT pIC50 (converted).
T1 sequence (P31645 whole entry): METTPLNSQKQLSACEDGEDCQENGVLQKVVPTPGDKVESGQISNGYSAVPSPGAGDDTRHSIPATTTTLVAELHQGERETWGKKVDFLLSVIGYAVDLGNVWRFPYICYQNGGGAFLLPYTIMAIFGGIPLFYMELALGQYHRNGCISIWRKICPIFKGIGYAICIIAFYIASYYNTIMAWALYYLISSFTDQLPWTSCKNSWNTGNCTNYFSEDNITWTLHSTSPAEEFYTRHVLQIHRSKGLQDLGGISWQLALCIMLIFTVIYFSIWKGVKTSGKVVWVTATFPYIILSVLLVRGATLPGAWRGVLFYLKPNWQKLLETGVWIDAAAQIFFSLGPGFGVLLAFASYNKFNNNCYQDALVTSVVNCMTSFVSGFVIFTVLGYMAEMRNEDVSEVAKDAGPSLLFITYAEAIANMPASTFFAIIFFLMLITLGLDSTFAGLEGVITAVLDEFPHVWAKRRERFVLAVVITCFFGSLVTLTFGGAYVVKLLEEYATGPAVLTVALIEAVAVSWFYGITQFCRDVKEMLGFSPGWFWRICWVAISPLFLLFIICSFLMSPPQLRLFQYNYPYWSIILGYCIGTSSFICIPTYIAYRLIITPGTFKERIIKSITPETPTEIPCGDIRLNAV
Assay [2] has as its target T2, hNET (Homo sapiens, UniProt P23975). Description: fluorescence-based norepinephrine reuptake inhibition assay (Tsuruda et al. 2010; data indicated by an asterisk). Type of assay: cell-based. Also noted: expressed in transfected cells; host or cells: HEK-293. The following applies: norepinephrine reuptake inhibition, fluorescence-based assay (values with asterisk); read-out: NET pIC50 (converted).

In assay [3] the target is T2, hNET. The experiment in a line: hNET membrane radioligand binding assay (3H-nisoxetine), Assay 1.
Protocol: Membrane radioligand binding assays were used to measure inhibition of labeled ligand (^3H-citalopram or ^3H-nisoxetine or ^3H-WIN35428) binding to membranes prepared from cells expressing the respective human recombinant transporter (hSERT or hNET or hDAT) in order to determine the pKi values of test compounds at the transporters.
Recombinant human embryonic kidney (HEK-293) derived cell lines stably transfected with hSERT or hNET, respectively, were grown in DMEM medium supplemented with 10% dialyzed FBS (for hSERT) or FBS (for hNET), 100 μg/mL penicillin, 100 μg/mL streptomycin, 2 mM L-glutamine and 250 μg/mL of the aminoglycoside antibiotic G418, in a 5% CO2 humidified incubator at 37° C. When cultures reached 80% confluence, the cells were washed thoroughly in PBS (without Ca^2+ and Mg^2+) and lifted with 5 mM EDTA in PBS. Cells were pelleted by centrifugation, resuspended in lysis buffer (10 mM Tris-HCl, pH7.5 containing 1 mM EDTA), homogenized, pelleted by centrifugation, then resuspended in 50 mM Tris-HCl, pH 7.5 and 10% sucrose at 4° C. Protein concentration of the membrane suspension was determined using a Bio-Rad Bradford Protein Assay kit. Membranes were snap frozen and stored at −80° C.
Binding assays were performed in a 96-well assay plate in a total volume of 200 μl assay buffer (50 mM Tris-HCl, 120 mM NaCl, 5 mM KCl, pH 7.4) with 0.5, 1, and 3 μg membrane protein, for SERT, NET and DAT, respectively.
Stock solutions (10 mM in DMSO) of test compound were prepared and serial dilutions made using Dilution Buffer (50 mM Tris-HCl, 120 mM NaCl, 5 mM KCl, pH 7.4, 0.1% BSA, 400 μM ascorbic acid).
Following a 60 minute incubation at 22° C. (or a period sufficient to reach equilibrium), the membranes were harvested by rapid filtration over a 96-well UniFilter GF/B plate, pretreated with 0.3% polyethyleneimine, and washed 6 times with 300 μl wash buffer (50 mM Tris-HCl, 0.9% NaCl, pH 7.5 at 4° C.). Plates were dried overnight at room temperature, approximately 45 μl of MicroScint™-20 (Perkin Elmer) added and bound radioactivity quantitated via liquid scintillation spectroscopy. Inhibition curves and saturation isotherms were analyzed using GraphPad Prism Software package (GraphPad Software, Inc., San Diego, Calif.). IC50 values were generated from concentration response curves using the Sigmoidal Dose Response (variable slope) algorithm in Prism GraphPad.
For assay [4], the target named is T1, hSERT. The experiment in a line: hSERT membrane radioligand binding assay (3H-citalopram), Assay 1. To be noted: SERT pKi, hSERT HEK-293 membranes, 1.0 nM 3H-citalopram; values given as lower bounds.

T2 sequence (P23975 whole entry): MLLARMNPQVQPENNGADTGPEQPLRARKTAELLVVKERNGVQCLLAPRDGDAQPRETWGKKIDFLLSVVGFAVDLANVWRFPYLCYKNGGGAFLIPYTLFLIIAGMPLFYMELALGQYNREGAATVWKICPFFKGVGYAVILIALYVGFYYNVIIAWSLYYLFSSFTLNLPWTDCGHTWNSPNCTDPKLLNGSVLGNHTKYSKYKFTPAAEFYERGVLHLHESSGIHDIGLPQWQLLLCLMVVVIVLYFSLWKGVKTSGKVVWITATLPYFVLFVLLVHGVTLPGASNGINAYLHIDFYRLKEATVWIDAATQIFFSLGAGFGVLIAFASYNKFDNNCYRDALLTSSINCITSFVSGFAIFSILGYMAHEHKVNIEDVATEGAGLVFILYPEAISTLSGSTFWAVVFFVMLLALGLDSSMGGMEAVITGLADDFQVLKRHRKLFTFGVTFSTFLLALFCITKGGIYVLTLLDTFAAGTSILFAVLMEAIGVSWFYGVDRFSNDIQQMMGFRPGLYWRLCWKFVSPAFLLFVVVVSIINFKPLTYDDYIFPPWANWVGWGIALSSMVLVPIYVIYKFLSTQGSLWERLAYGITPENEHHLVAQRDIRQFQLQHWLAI

For the molecule `CNCC[C@H](Oc1cccc2ccccc12)c1cccs1` [duloxetine], the “selectivity (measured as pKi) for SERT over NET” value in the assay on SERT and NET is 10 fold. Also, in the assay on SERT and NET (Vaishnavi et al. (2004)), the “affinity for SERT relative to NET” value was “higher affinity for SERT relative to NET”.

For `CCN(CC)C(=O)C1(c2ccccc2)CC1CN` (stereo not shown) [milnacipran], the “selectivity (measured as pKi) for SERT over NET” value in the assay with SERT and NET is listed as 2.5 fold.

As to `Fc1cc(Cl)cc(F)c1O[C@H](C1CC1)[C@H]1CCNC1` [Example 16-80, (S)-3-[(R)-(4-Chloro-2,6-difluorophenoxy)cyclopropylmethyl]pyrrolidine], the IC50 on hSERT [1] and at hNET [2] was ≤ 10 nM in each case. For the same molecule, the Ki at hNET [3] and on hSERT [4] was ≤ 10 nM in each case.

For the molecule `Cc1cc(O[C@H](C2CC2)[C@H]2CCNC2)ccc1Cl` [Example 16-95, (S)-3-[(R)-(4-Chloro-3-methylphenoxy)cyclopropylmethyl]pyrrolidine], the values for the IC50 at hSERT [1] and on hNET [2] were ≤ 10 nM and ≤ 100 nM, respectively. In addition, the values for the Ki at hNET [3] and on hSERT [4] were ≤ 100 nM and ≤ 10 nM, respectively.

Turning to `CC(C)[C@H](Oc1ccc(Cl)cc1C(F)(F)F)[C@H]1CCNC1` [Example 6-51, (S)-3-[(S)-1-(4-Chloro-2-trifluoromethylphenoxy)-2-methylpropyl]pyrrolidine], the IC50 at hSERT [1] was ≤ 100 nM; on hNET [2] it was ≤ 10 nM. In addition, the Ki on hNET [3] and at hSERT [4] was ≤ 10 nM in each case.

With `Fc1ccc(Cl)c(Cl)c1O[C@@H](C1CC1)[C@H]1CCNC1` [Example 16-59, (S)-3-[(S)cyclopropyl-(2,3-dichloro-6-fluorophenoxy)methyl]pyrrolidine], the IC50 at hSERT [1] and on hNET [2] was ≤ 10 nM in each case. The Ki on hNET [3] and on hSERT [4] was ≤ 10 nM in each case.

In the case of `Cc1cc(O[C@@H](C2CC2)[C@H]2CCNC2)ccc1Cl` [Example 16-94, (S)-3-[(S)-(4-Chloro-3-methylphenoxy)cyclopropylmethyl]pyrrolidine], the IC50 at hSERT [1] and on hNET [2] was ≤ 10 nM in each case. In addition, the Ki on hNET [3] and on hSERT [4] was ≤ 10 nM each time.

On to `Cc1ccc(O[C@@H](C2CC2)[C@H]2CCNC2)c(F)c1F` [Example 16-50, (S)-3-[(S)cyclopropyl-(2,3-difluoro-4-methylphenoxy)methyl]pyrrolidine], for which the IC50 on hSERT [1] and at hNET [2] was ≤ 10 nM throughout. Further, the Ki on hNET [3] and on hSERT [4] was ≤ 10 nM each time.

For the molecule `Clc1ccc(O[C@@H](C2CC2)[C@H]2CCNC2)cc1Cl` [Example 16-87, (S)-3-[(S)cyclopropyl-(3,4-dichlorophenoxy)methyl]pyrrolidine], the IC50 on hSERT [1] and on hNET [2] was ≤ 10 nM in each case. For the same molecule, the Ki at hNET [3] and on hSERT [4] was ≤ 10 nM in each case.

For the molecule `CCC[C@@H](Oc1cc(Cl)cc(Cl)c1)[C@@H]1CCNC1` [Example 4-9, (R)-3-[(R)-1-(3,5-Dichlorophenoxy)butyl]pyrrolidine], the IC50 at hSERT [1] and at hNET [2] was ≤ 10 nM each time. The Ki on hNET [3] and on hSERT [4] was ≤ 10 nM each time.

In the case of `CNCC[C@@H](Oc1ccccc1C)c1ccccc1` [Atomoxetine], the NET selective in the assay with SERT and NET (NET selectivity) is reported as 10 fold.

On to `CC(C)C[C@H](Oc1c(Cl)cccc1Cl)[C@@H]1CCNC1` [Example 10-56, (R)-3-[(S)-1-(2,6-Dichlorophenoxy)-3-methylbutyl]pyrrolidine], for which the IC50 on hSERT [1] and at hNET [2] was ≤ 100 nM in each case. Moreover, the Ki at hNET [3] and on hSERT [4] was ≤ 10 nM in each case.

As for `Fc1c(Cl)cccc1O[C@@H](C1CC1)[C@H]1CCNC1` [Example 16-11, (S)-3-[(S)-(3-Chloro-2-fluorophenoxy)cyclopropylmethyl]pyrrolidine], the IC50 at hSERT [1] and on hNET [2] was ≤ 10 nM in each case. Besides, the Ki at hNET [3] and at hSERT [4] was ≤ 10 nM throughout.

`Cc1cc(O[C@@H](C2CC2)[C@H]2CCNC2)c(Cl)cc1Cl` [Example 16-72, (S)-3-[(S)cyclopropyl-(2,4-dichloro-5-methylphenoxy)methyl]pyrrolidine]: the IC50 at hSERT [1] was ≤ 10 nM; on hNET [2] it was ≤ 100 nM. Further, the Ki at hNET [3] is ≤ 100 nM; on hSERT [4], ≤ 10 nM.

On to `Cc1c(Cl)cccc1O[C@@H](CC(C)C)[C@H]1CCNC1` [Example 10-33, (S)-3-[(S)-1-(3-Chloro-2-methylphenoxy)-3-methylbutyl]pyrrolidine], for which the IC50 on hSERT [1] and on hNET [2] was ≤ 10 nM throughout. The Ki on hNET [3] and at hSERT [4] was ≤ 10 nM in each case.

Broadly, the Ki is a measure of affinity in units of concentration, obtained from inhibition or displacement. A high value points to lower affinity.
